Source: article PMC7618454, “Interleukin-1 receptor-associated kinase 4 (IRAK4) is a critical regulator of inflammatory signalling through toll-like receptors 4 and 7/8 in murine and human lungs” (British journal of pharmacology, 2024)

How the values were obtained:
[1] = target: T1, interleukin-1 receptor-associated kinase 4 (IRAK4) (Mus musculus, UniProt Q8R4K2); test: IMAP fluorescence polarization kinase assay, […] ATP; format: biochemical
T1 construct: kinase domain, aa 153–459, N-terminal His6-tagged
T1 sequence (Q8R4K2 153-459): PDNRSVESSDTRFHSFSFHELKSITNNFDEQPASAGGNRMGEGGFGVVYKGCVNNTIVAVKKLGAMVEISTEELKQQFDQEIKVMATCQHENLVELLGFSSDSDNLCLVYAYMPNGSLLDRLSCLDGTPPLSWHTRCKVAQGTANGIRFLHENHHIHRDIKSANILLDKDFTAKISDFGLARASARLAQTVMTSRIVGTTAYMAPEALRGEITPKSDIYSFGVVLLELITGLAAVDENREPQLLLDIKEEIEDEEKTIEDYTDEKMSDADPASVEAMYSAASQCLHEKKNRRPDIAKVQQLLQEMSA

[2] = target: T2, interleukin-1 receptor-associated kinase 4 (IRAK4) (Homo sapiens, UniProt Q9NWZ3); test: IMAP fluorescence polarization kinase assay, […] ATP; format: biochemical
T2 construct: kinase domain, aa 153–460, N-terminal His6-tagged
T2 sequence (Q9NWZ3 153-460): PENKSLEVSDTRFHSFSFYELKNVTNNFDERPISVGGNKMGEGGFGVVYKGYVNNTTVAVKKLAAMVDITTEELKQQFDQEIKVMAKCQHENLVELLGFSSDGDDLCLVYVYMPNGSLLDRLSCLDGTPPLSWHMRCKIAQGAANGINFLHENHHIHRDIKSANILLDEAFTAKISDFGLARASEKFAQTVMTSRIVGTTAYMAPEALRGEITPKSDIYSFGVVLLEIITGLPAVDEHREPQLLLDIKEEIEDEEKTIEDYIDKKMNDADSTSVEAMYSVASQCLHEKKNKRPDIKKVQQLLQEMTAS

BI1543673
IC50 [1]: ~2 nM
IC50 [2]: ~2 nM
